Test results published in patent US10155802B2, “Locally-active anticoagulants and anti-inflammatory agents” (priority 2011, dated 2018).

What was measured:
[1] = tested on: human coagulation proteome; experiment: Synthetic coagulation proteome assay (thrombin generation); assay type: biochemical
Experimental: This assay is carried out using an established protocol as described previously (Brummel-Ziedens 2008). Briefly, a pro-cofactor solution containing re-lipidated tissue factor (10 pM; molar ratio PCPS:TF=5000) was incubated with 4 μM PCPS in HBS (20 mM HEPES and 150 mM NaCl at pH 7.4) and 2 mM CaCl2 for 8 min at 37° C. Factor V (40 nM) and Factor VIII (1.4 nM) were then added to the mixture prior to initiation of the reaction to activate the protease zymogens in the blood coagulation cascade. The activation reaction was initiated by addition of the pro-cofactor solution to a zymogen solution containing prothrombin (2.8 μM), Factor VII (20 nM), Factor Vila (0.2 nM), FX (340 nM), Factor IX (180 nM), Factor XI (60 nM), TFPI (5 nM), antithrombin III (6.8 μM) […]
At selected time points after initiation of the reaction, 10 μL aliquots were withdrawn from the reaction mixture and quenched in 20 mM EDTA in HBS (pH 7.4) containing 0.2 mM Spectrozyme™ TH and assayed immediately for the proteolytic activity of thrombin. The hydrolysis of Spectrozyme™ TH was monitored by the change in absorbance at 405 nm using a SpectraMax™ plate reader (Molecular Devices Corp., Menlo Park, Calif., USA). Concentration of thrombin generated by the reaction was calculated from a standard curve prepared by serial dilutions of known concentrations of α-thrombin using the fibrinogen clotting assay (DiMaio 1990). Fibrinogen solution was freshly prepared by dissolving about 0.5% (w/v) fibrinogen in 50 mM Tris-HCl, 100 mM NaCl, 0.1% PEG-8000, pH 7.6 and filtering the resulting solution through a hydrophilic membrane of 0.45 μm polyvinylidene fluoride (PVDF) with low protein binding. The concentration of fibrinogen after filtration was determined by using the extinction coefficient of 15.0 for 1% fibrinogen at 280 nm. […] Thrombin-induced clotting of fibrinogen was followed at 25° C. by measuring the optical absorbance at 420 nm. The clotting time was obtained from extrapolation of the slope at the point of inflection to the zero absorbance baseline. […]

[2] = tested on: FeCl3-induced arterial thrombosis (carotid artery); experiment: FeCl3-induced arterial model of thrombosis in rats (time to occlusion); assay type: in vivo; conditions: rat, single bolus 0.2 mg/kg plus maintenance infusion 0.00433 mg/kg/min
Experimental: Male Sprague-Dawley rats (250-310 g; Charles River Laboratories, St-Constant, QC, Canada) were acclimated for at least 3 days prior to the start of the study. Animals were housed in microisolator cages and were kept on a 12-hr light/dark cycle with constant temperature and humidity. Food and water were provided ad libitum. Various anti-thrombotic agents and peptides of this invention were dissolved in saline (0.9% sodium chloride) prior to use.
The FeCl3-induced arterial model of thrombosis in rats was also generated as described by Wang and Xu (Wang 2005) with some modifications (Couture 2011). Briefly, rats were anesthetized with a 2.5% isoflurane/oxygen mixture and placed on a heat source (35-37° C.). An incision was made over the right carotid artery, and a segment of the artery was exposed via blunt dissection. A Doppler flow probe (Model MA1PRB, Transonic System Inc., Ithaca, N.Y., USA) connected to a perivascular flow module (TS420, Transonic System Inc., Ithaca, N.Y., USA) was then attached to the carotid artery to monitor blood flow. Data were collected and analyzed using the MP100 Biopac™ Systems (Biopac Systems, Santa Barbara, Calif., USA), and the AcgKnowledge™ software (Biopac Systems, Santa Barbara, Calif., USA), respectively. Baseline blood flow was recorded for a minimum of 15 minutes until readings stabilized. Aquasonic 100 gel (Parker Laboratories, Inc., Fairfield, N.J., USA) was added to help conductivity and any fluid accumulating at the site of surgery was removed during data sampling without touching the probe. […] One minute after drug administration, a piece of filter paper (Gel Blot Paper, GB003, Whatman, Piscataway, N.J., USA; 7 mm diameter) saturated with 20% FeCl3 (EMD Chemicals Inc., Gibbstown, N.J., USA) was placed on the exposed surface of the carotid artery and incubated for 3.5 minutes. During the application of FeCl3, the neck region was covered with aluminum foil. At the end of the incubation period, the filter paper was removed and the exposed carotid was covered with a saline-soaked gauze. Time to occlusion was defined as the time from the application of FeCl3 until blood flow decreased to zero. […] Preparing and processing each animal took approximately 1 hr and 7 animals were treated each day. Control animals were always included when the other treatments were being administered. For this reason, the number of animals in the control group is higher than that of the treated-groups.
Statistical analysis was conducted using GraphPad™ Prism (GraphPad Software Inc., San Diego Calif., USA). Data were analyzed using one-way ANOVA with post-hoc Bonferroni correction for multiple comparisons. The relationship between thrombus weight and thrombus volume was determined by linear regression. […]

[3] = tested on: fresh blood withdrawn from rats with venous thrombosis; experiment: Clotting time (aPTT) of fresh blood withdrawn from treated rats; assay type: in vivo; conditions: rat, 0.2 mg/kg bolus + 0.00433 mg/kg/min infusion; 20 minutes after administration versus before
Experimental: FIG. 23 illustrates the clotting times (aPTT) determined for fresh blood withdrawn from rats with venous thrombosis at three time points, the first before drug administration and vessel injury, the second at 20 minutes after FeCl3 application and the third 60 minutes following injection of the respective thrombin inhibitors. Clotting times (aPTT) are shown for different rats administered with each thrombin inhibitor, ZIP4 for MH2-wZIP4, ZIP5 for MH2-wZIP5 and T218 for BRI-T218. Dosage levels for every compound were 0.2 mg/kg for the single-bolus injection and 0.00433 mg/kg/min for the maintenance infusion,
Terminal blood samples were analyzed for aPTT within 15 to 30 minutes of collection using a Coag DX Analyzer with aPTT citrate cartridges (IDEXX Laboratories, Westbrook, Me., USA).

CC[C@H](C)[C@H](N)C(=O)N[C@@H](CCCNC(=N)N)C(=O)N[C@@H](Cc1ccccc1)C(=O)N[C@H](C(=O)N[C@@H](CC(=O)O)C(=O)NCC(=O)N[C@@H](CCC(=O)O)C(=O)N[C@@H](Cc1c[nH]c2ccccc12)C(=O)N[C@H](C(=O)N[C@@H](Cc1c[nH]c2ccccc12)C(=O)N[C@@H](CC(=O)O)C(=O)N[C@@H](CC(=O)O)C(=O)N[C@@H](C)C(=O)N[C@H](C(=O)N[C@@H](CCCCN)C(=O)N[C@H](C(=O)N[C@@H](Cc1c[nH]c2ccccc12)C(=O)N[C@H](C(=O)N[C@@H](Cc1c[nH]c2ccccc12)C(=O)N[C@H](C(=O)N[C@@H](CCC(=O)O)C(=O)NCC(=O)N[C@@H](CC(=O)O)C(=O)N[C@@H](Cc1ccccc1)C(=O)N[C@@H](CCC(=O)O)C(=O)N[C@@H](CCC(=O)O)C(=O)N[C@H](C(=O)N1CCC[C@H]1C(=O)N[C@@H](CCC(=O)O)C(=O)N[C@@H](CCC(=O)O)C(=O)N[C@@H](Cc1ccc(O)cc1)C(=O)N[C@@H](CC(C)C)C(=O)N[C@@H](CCC(N)=O)C(=O)O)[C@@H](C)CC)[C@@H](C)O)[C@@H](C)O)[C@@H](C)O)[C@@H](C)O)[C@@H](C)O)[C@@H](C)O [MH2-wZIP4]
delay of thrombin burst / onset of thrombin generation ([1]; 37° C.): very little delay in the onset of thrombin generation
delay of onset of thrombin generation with increase of bulk temperature ([1]; 42° C. versus 37° C.): delaying effect is increased somewhat
anti-thrombotic efficacy in arterial model [2]: increases the efficacy
clotting time (aPTT), systemic anticoagulant effect [3]: only a slight prolongation of the clotting time (aPTT)
